Results reported in patent publication US20040029100A1, “Rapid screen to identify p-glycoprotein substrates and high affinity modulators” (priority 2000, published 2004).
Where two headings read alike, the source gives them in different places.

Tests used:
[1] = biological target: T1, P-glycoprotein (Pgp) purified from MDR CH^RB30 Chinese hamster ovary cells (Cricetulus griseus, UniProt P21448); assay: Quenching of intrinsic Trp fluorescence of purified Pgp by nucleotides, drugs and peptides; conditions: for ΔFmax: maximal quenching reached at saturation
Procedure: (§1) Purification of Pgp. Pgp was purified from plasma membrane of MDR CH^RB30 cells by a modification of the method previously described for CH^RC5 (27). […] Contaminating glycoproteins were removed from the S2 fraction by passing through a concanavalinA-Sepharose 4B column (Pharmacia) equilibrated with 2 mM CHAPS buffer. […] The Pgp preparation was kept on ice and used within 24 h.
(§2) Steady-state Fluorescence Measurements. Steady-state fluorescence measurements were performed using a Spex Model DM3000 spectrofluorimeter (Spex Industries Inc., Edison, N.J.) at 22° C., with excitation and emission bandpass set to 4 nm. Most fluorescence studies were carried out on solutions of 100 μg/mL Pgp in 2 mM CHAPS buffer, in the presence of 0.5 mg/mL of the phospholipid PMPC (Avanti Polar Lipids, Alabaster, Ala.). PMPC was added as extruded 100 nm unilamellar vesicles (8). With some drugs, the use of a lipid was not required for the fluorescence measurements. The excitation and emission spectra were the average of three scans, and were corrected by subtracting control scans with the same phospholipid buffer in the absence of protein.
(§3) Quenching Studies using TNP-Nucleotide Derivatives and Drugs. […] Working solutions of TNP-derivatives, and non-peptide drugs and modulators were also prepared in 2 mM CHAPS with 0.5 mg/mL PMPC vesicles, whereas peptide-based drugs and modulators were dissolved in dimethylsulfoxide (DMSO). […] Quenching experiments were performed by successively adding 5 μL aliquots of TNP-derivatives or drug solution to 500 μL of Pgp solution in a 0.5 cm quartz cuvette. After each addition, the sample was excited at 290 nm and the steady-state fluorescence emission was measured at 330 nm. Fluorescence intensities were corrected for dilution, scattering, and the inner filter effect as described elsewhere (8). Control titrations were performed with 30 μM NATA to assess the non-specific quenching of Trp fluorescence by TNP-nucleotide derivatives and drugs.
(§4) The experimental quenching data were computer-fitted to the following equation as described previously (8)(9): [formula]
(§5) where (ΔF/F0 100) is the percent quenching (percent change in fluorescence relative to the initial value), following addition of substrate at a concentration [S], and Kd is the dissociation constant. Fitting was carried out using nonlinear regression with the Marquardt-Levenberg algorithm (SigmaPlot, SPSS Inc., Chicago, Ill.), and values of Kd and (ΔFmax/F0 100) were extracted. For biphasic titration curves, each section of the binding curve was fitted to the above equation separately, as described previously (32).

P-glycoprotein (Pgp) = P-glycoprotein (Pgp) (Cricetulus griseus, UniProt P21448); assay: in vitro; conditions: Chinese hamster, Kd2
Procedure: as §1, §2, §3, §4, §5

[2] = biological target: T1, P-glycoprotein (Pgp) purified from MDR CH^RB30 Chinese hamster ovary cells; assay: Trp fluorescence lifetime of purified Pgp in presence of nucleotides and drugs; design: Pgp was purified from plasma membrane of MDR CH^RB30 cells; endogenous in cells; host or cells: MDR CH^RB30 Chinese hamster ovary cells (plasma membrane, CHAPS extraction, concanavalin A-Sepharose pass-through); conditions: Pgp Trp decay, concentration of substance
Procedure: as §1
Fluorescence Lifetime Measurements. Fluorescence decays were measured with a PTI Model C-720 fluorescence lifetime instrument ((28), Photon Technology International Inc., Lawrenceville, N.J.) utilizing a proprietary stroboscopic detection technique (29). […] Fluorescence decays were analyzed with a PTI TimeMaster Pro analysis package using a discrete 1- to 4- exponential fit, 1- to 4-exponential global analysis, or lifetime distribution analysis by the Exponential Series Method (ESM) (30). The quality of fits was judged by chi-square values and weighed residuals.

Pgp ATPase = Pgp ATPase (Cricetulus griseus, UniProt P21448); assay: Pgp ATPase activity; assay type: biochemical; conditions: over the range 0.3-0.5 M
[3] = maximal Trp quenching, single or higher affinity component
[4] = read-out: Kd1, single binding site or high affinity site, 100 μg/mL Pgp, 2 mM CHAPS, 0.5 mg/mL PMPC, 22° C.

T1 sequence (P21448 whole entry): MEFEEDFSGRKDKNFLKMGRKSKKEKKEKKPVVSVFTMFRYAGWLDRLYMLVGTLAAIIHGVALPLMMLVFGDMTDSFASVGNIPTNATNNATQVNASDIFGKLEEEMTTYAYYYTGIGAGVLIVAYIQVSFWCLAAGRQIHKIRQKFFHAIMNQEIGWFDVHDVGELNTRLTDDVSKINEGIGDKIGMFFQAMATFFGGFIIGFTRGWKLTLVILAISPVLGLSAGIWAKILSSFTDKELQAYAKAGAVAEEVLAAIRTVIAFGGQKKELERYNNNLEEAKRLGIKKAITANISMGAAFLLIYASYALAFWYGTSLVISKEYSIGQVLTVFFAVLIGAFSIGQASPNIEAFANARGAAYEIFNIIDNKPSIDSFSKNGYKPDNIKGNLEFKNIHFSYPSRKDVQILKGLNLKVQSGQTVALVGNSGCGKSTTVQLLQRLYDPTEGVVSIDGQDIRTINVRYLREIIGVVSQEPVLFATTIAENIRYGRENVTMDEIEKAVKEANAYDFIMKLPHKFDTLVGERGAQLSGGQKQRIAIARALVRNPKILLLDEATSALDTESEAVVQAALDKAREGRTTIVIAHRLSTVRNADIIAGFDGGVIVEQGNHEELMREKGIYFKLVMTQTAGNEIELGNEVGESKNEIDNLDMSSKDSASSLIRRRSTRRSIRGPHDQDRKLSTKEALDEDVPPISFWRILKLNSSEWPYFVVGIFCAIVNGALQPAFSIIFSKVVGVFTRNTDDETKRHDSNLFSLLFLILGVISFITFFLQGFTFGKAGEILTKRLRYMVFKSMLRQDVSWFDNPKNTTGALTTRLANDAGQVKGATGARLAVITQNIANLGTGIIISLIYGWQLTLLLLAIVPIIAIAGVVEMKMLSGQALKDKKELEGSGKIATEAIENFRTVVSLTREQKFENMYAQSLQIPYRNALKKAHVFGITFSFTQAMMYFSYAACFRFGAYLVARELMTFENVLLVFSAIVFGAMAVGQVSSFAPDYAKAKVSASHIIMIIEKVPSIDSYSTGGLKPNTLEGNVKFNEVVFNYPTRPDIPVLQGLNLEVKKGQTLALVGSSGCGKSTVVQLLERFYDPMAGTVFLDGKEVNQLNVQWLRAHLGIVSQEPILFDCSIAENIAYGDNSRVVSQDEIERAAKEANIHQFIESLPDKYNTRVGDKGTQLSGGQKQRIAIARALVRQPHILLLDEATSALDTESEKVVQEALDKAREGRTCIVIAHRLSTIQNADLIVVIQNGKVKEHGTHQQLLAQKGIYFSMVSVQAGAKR
Pgp ATPase, sequence (P21448 whole entry): as above
P-glycoprotein (Pgp), sequence (P21448 whole entry): as above

With `COc1cccc2c1C(=O)c1c(O)c3c(c(O)c1C2=O)C[C@@](O)(C(=O)CO)C[C@@H]3O[C@H]1C[C@H](N)[C@H](O)[C@H](C)O1` [doxorubicin] the Kd [1] was 5.44 ± 0.55 µM, the ΔFmax2 ([1]; maximal Trp quenching, lower affinity component) was 38.7 ± 3.0% and the ΔFmax1 [1, 3] was 19.5 ± 0.90%. For the same compound, the Kd (P-glycoprotein (Pgp)) was 21.6 ± 3.2 µM.
With TNP-ATP the “<tav> (amplitude average lifetime)” value [2] was 2.14 ns, the “a1 (pre-exponential value)” value [2] was 0.69 and the “a2 (pre-exponential value)” value [2] was 0.42. For the same compound, the “t1 (fluorescence lifetime)” value [2] was 1.0 ns, the “t2 (fluorescence lifetime)” value [2] was 4.0 ns and the ΔFmax1 [1, 3] was 79.6%. The ΔFmax [1] was roughly 80%, the Kd ([1]; nucleotide alone, absence of drug) was 51 µM and the Kd [1, 4] was 50.6 µM. The Kd ([1]; titration following daunorubicin binding) was 65 µM and the Kd ([1]; titration following saturation with vinblastine) was 64 µM.
Compound `CC(C)[C@@H]1NC(=O)[C@H](C)OC(=O)[C@@H](C(C)C)NC(=O)[C@@H](C(C)C)OC(=O)[C@H](C(C)C)NC(=O)[C@H](C)OC(=O)[C@@H](C(C)C)NC(=O)[C@@H](C(C)C)OC(=O)[C@H](C(C)C)NC(=O)[C@H](C)OC(=O)[C@@H](C(C)C)NC(=O)[C@@H](C(C)C)OC1=O` [valinomycin] has a Kd [1] of 0.72 ± 0.084 µM and a ΔFmax1 [1, 3] of 4.14 ± 0.086%.
Work on `CCCCCCCCCCCCCCCCCCOP(=O)(O)OCC[N+]1(C)CCCCC1` [D-20133] yielded a ΔFmax1 [1, 3] of 12.3 ± 0.89% and a Kd [1, 4] of 12.8 ± 2.1 µM.
Compound `Nc1ncnc2c1ncn2[C@@H]1O[C@H](COP(=O)([O-])OP(=O)([O-])O)[C@@H](O)[C@H]1O.[Na+].[Na+]` [ADP, disodium-ADP] has a ΔFmax1 [1, 3] of 9.46%, a ΔFmax [1] of roughly 10% and a Kd [1, 4] of 330 µM. For the same compound, the Kd ([1]; single type of binding site) was roughly 300 µM.
With `COC(=O)[C@H](CCCCNC(=O)[C@H](CCC(=O)OCc1ccccc1)NC(=O)OC(C)(C)C)NC(=O)[C@H](CCC(=O)OCc1ccccc1)NC(=O)OC(C)(C)C` [reversin 205] the Kd ([1]; Kd1) was 0.37 ± 0.037 µM and the ΔFmax1 [1, 3] was 5.41 ± 0.13%.
In the case of `CCOc1ccc(-c2nc3ccc(-c4nc5ccc(N6CCN(C)CC6)cc5[nH]4)cc3[nH]2)cc1` [Hoechst 33342], the ΔFmax1 [1, 3] is reported as 57.2 ± 1.97% and the Kd [1, 4] is reported as 2.61 ± 0.182 µM.
For `Nc1ncnc2c1ncn2[C@@H]1O[C@H](COP(=O)(O)OP(=O)([O-])OP(=O)([O-])O)[C@@H](O)[C@H]1O.[Na+].[Na+]` [ATP, disodium-ATP], the ΔFmax1 [1, 3] was 10.4%, the ΔFmax [1] was roughly 10% and the Kd [1, 4] was 280 µM. For the same compound, the Kd ([1]; single type of binding site) was roughly 300 µM.
For `C/C=C/C[C@@H](C)C(=O)[C@H]1C(=O)N[C@@H](C(C)C)C(=O)N(C)CC(=O)N(C)[C@@H](CC(C)C)C(=O)N[C@@H](C(C)C)C(=O)N(C)[C@@H](CC(C)C)C(=O)N[C@@H](C)C(=O)N[C@H](C)C(=O)N(C)[C@@H](CC(C)C)C(=O)N(C)[C@@H](CC(C)C)C(=O)N(C)[C@@H](C(C)C)C(=O)N1C` [PSC833], the Kd [1] was 0.081 ± 0.0071 µM and the ΔFmax1 [1, 3] was 4.02 ± 0.079%.
`C=CC(N)=O` [acrylamide] was tested, and the “decline in catalytic activity (ATP hydrolysis by Pgp)” value (Pgp ATPase) was roughly 20%.
With tetramethylrosamine the “<tav> (amplitude average lifetime)” value [2] was 3.9 ns, the “a1 (pre-exponential value)” value [2] was 2.43 and the “a2 (pre-exponential value)” value [2] was 1.1. For the same compound, the “t1 (fluorescence lifetime)” value [2] was 0.55 ns, the ΔFmax1 [1] was 21.0 ± 3.3% and the ΔFmax2 [1] was 32.8 ± 0.88%.
Compound `Nc1ncnc2c1ncn2C1OC(COP(=O)(O)OP(=O)(O)NP(=O)(O)O)C(O)C1O` (stereo not shown) [AMP-PNP, 5′-adenylylimido-diphosphate] has a ΔFmax1 [1, 3] of 10.6%, a ΔFmax [1] of roughly 10% and a Kd ([1]; single type of binding site) of 210 µM.
